Data from article PMC7497253, “Structure‐Based Macrocyclization of Substrate Analogue NS2B‐NS3 Protease Inhibitors of Zika, West Nile and Dengue viruses” (Chemmedchem, 2020).

Legend:
Assay type in all cases: biochemical
[1] = target: T1, bD4Pro (unlinked binary dengue-4 virus NS2B-NS3 protease) (Dengue virus type 4, UniProt Q2YHF2); test: Enzyme kinetics with bD4Pro, substrate Benzoyl-Nle-Lys-Arg-Arg-AMC
T1 construct: The viral protease consists of the N‐terminal third of the nonstructural protein NS3; NS3 has to form a complex with its cofactor NS2B to achieve proteolytic activity; His6 (cleaved yes); made in house
T1 sequence (Q2YHF2 1475-1652 limits assumed): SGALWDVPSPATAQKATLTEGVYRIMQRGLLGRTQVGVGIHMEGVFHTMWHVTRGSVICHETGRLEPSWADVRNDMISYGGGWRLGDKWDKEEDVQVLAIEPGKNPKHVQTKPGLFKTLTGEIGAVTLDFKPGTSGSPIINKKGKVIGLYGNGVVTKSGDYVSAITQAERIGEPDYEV
T1 sequence (Q2YHF2 1397-1436 limits assumed): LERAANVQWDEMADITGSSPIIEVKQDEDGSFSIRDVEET
Method: Measurements with the dengue 4 virus protease construct (bD4Pro; expressed and purified by a similar methodology as described for bZiPro15 with slight modification of using Tobacco Etch Virus (TEV) protease instead of thrombin for His6‐tag cleavage) were performed in a Cytation 3 Mulitmode plate reader with λ ex at 380 nm and λ em at 460 nm. Assays were carried out as triplicate at 37 °C. Before measurement, the protease (final assay concentration 3 nM) was preincubated with varying concentrations of inhibitors in assay buffer (20 mM Tris pH 8.5, 10 % glycerol, 0.01 % Triton X‐100) for 1 h at room temperature in Corning black clear bottom 96‐well plates. The reaction was started by addition of the substrate Benzoyl‐Nle‐Lys‐Arg‐Arg‐AMC (final assay concentration 50 μM, K M=48.4 μM). Fluorescent readings were recorded at 1‐minute intervals over 10 minutes. The steady‐state rates v i in presence of inhibitor were calculated from the slopes of the progress curves using Graph Pad Prism. The v i values were fitted to Equation (2) as function of the inhibitor concentration [I] providing the IC50 values, where v 0 is the rate in absence of inhibitor and s a slope factor. The obtained IC50 values were finally converted into K i values by the Cheng‐Prusoff Equation (2).(2) vi=v0/1+I/IC50^s (3) Ki=IC50/1+S/KM

[2] = target: T2, WNV NS2B-NS3 protease (WNV-Pro) (West Nile virus, UniProt P06935); test: Enzyme kinetics with the covalent WNV NS2B-NS3 construct, substrate Phac-Leu-Lys-Lys-Arg-AMC
T2 construct: NS3 has to form a complex with its cofactor NS2B to achieve proteolytic activity; The viral protease consists of the N‐terminal third of the nonstructural protein NS3
T2 sequence (P06935 1424-1463): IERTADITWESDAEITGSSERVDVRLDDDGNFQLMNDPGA
T2 sequence (P06935 1502-1679): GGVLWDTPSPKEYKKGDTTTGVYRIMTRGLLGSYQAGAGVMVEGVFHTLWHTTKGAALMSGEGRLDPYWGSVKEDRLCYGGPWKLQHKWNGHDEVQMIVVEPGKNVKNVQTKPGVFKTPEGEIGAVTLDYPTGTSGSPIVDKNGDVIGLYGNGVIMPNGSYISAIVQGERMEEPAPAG
Method: (§1) Enzyme kinetics. Measurements with bZiPro15 and the covalent WNV NS2B‐NS3 construct^10 were performed at room temperature in black 96 well plates using a Fluoroskan Ascent® plate reader (Thermo Fisher Scientific, Vantaa, Finland) with λ ex at 355 nm and λ em at 460 nm. Each well contained 125 μL inhibitor dissolved in buffer (for bZiPro: 20 mM Tris×HCl pH 8.5, 2 mM DTT, 10 w/v glycerol and 0.01 w/v Triton X‐100;18 for WNV protease: 100 mM Tris×HCl pH 8.5, containing 32 w/v glycerol and 0.01 w/v Triton X‐10012) and 50 μL substrate Phac‐Leu‐Lys‐Lys‐Arg‐AMC12 (40 μM for bZiPro (10 μM in assay, K M=1.4 μM) and 400 μM for the WNV protease (100 μM in assay, K M=53 μM)). The measurements were started by addition of 25 μL enzyme solution (16 nM for bZiPro (2.0 nM in assay), and 64 nM for the WNV protease (8.0 nM in assay)). Data points were collected each 15 s over a period of 10 min using eight different inhibitor concentrations. […] The K i values and their standard deviation were obtained from at least three independent measurements.(1) vi=Vmax×[S]/KM1+[I]/Ki+[S]

[3] = target: T3, bZiPro (unlinked binary Zika virus NS2B-NS3 protease) (Zika virus, UniProt A0A024B7W1); test: Enzyme kinetics with bZiPro, fluorogenic substrate Phac-Leu-Lys-Lys-Arg-AMC; conditions: for Ki: K i bZiPro, mean±SD of at least three independent measurements, substrate 10 μM in assay, room temperature, pH 8.5
T3 construct: The viral protease consists of the N‐terminal third of the nonstructural protein NS3; the NS2B construct ends at Glu96; His6 (cleaved yes); made in house
T3 sequence (A0A024B7W1 1503-1680 limits assumed): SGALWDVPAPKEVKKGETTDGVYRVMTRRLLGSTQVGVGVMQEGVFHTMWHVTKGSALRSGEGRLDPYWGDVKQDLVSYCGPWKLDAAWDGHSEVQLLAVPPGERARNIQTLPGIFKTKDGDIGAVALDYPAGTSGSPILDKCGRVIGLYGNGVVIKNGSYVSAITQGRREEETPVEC
T3 sequence (A0A024B7W1 1425-1464 limits assumed): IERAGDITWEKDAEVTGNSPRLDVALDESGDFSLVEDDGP
Method: as §1
The constants K M and V max were obtained from independent measurements with six different substrate concentrations in absence of inhibitor. For inhibitor 10 with bZiPro, additional measurements at three substrate concentrations (10, 5, and 2.5 μM in assay) were performed to obtain the Dixon plot shown in Figure 4.

furin = furin (Homo sapiens, UniProt P09958); test: Enzyme kinetic assay with furin (selectivity); conditions: at concentrations of 75 μM
Sequence of furin (P09958 108-794): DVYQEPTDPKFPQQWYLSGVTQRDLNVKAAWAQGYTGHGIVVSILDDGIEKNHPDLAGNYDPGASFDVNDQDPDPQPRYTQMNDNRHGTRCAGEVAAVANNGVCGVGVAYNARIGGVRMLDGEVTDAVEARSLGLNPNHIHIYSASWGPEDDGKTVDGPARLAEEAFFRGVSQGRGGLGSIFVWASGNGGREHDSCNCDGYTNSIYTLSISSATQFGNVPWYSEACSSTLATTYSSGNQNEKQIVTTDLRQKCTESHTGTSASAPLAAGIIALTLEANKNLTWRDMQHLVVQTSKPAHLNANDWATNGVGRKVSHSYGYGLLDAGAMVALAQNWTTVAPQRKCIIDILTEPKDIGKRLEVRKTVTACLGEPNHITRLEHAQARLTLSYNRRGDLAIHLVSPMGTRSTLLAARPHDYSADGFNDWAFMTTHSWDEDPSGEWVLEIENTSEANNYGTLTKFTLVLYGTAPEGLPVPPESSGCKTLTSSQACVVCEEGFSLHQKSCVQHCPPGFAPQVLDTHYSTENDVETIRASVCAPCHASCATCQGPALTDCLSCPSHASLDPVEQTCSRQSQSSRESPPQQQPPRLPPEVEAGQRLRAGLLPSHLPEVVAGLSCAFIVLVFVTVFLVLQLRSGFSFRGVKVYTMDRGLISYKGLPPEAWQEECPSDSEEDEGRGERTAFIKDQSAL
Description: (§2) Some of the latter group, like the peptidic arginal8 or boroarginine derivatives,10 form a reversible covalent bond with their target. […] With respect to virus replication, mutations in allosteric binding pockets are better tolerated than changes in the active site, which often lead to a more severe influence on the fitness of the virus.31, 32 This advantage justifies further efforts for the improvement of active site inhibitors. One strategy to reduce the conformational freedom of peptide derivatives and predisposing them to a favorable orientation for binding is their macrocyclization, leading to improved potency, selectivity and stability.33 By this approach, we have prepared numerous noncovalent inhibitors with excellent selectivity for the tested flavivirins, when compared with trypsin‐like serine proteases or basic proprotein convertases. […] The deep S1 pocket of trypsin34 and furin35 cannot tolerate a branching close to the basic P1 guanidine anchor, which is well accepted by the flavivirins due to their flat and open S1 site. In contrast to some of our previously described linear C‐terminal elongated derivatives,18, 36 the cyclic derivatives are fully stable when incubated with bZiPro, as analyzed by mass spectrometry (Figure S3). […]

trypsin = target: T4, trypsin (Bos taurus, UniProt P00760); test: Enzyme kinetic assay with trypsin (selectivity); conditions: at concentrations of 75 μM
T4 construct: gene PRSS1
T4 sequence (P00760 24-246): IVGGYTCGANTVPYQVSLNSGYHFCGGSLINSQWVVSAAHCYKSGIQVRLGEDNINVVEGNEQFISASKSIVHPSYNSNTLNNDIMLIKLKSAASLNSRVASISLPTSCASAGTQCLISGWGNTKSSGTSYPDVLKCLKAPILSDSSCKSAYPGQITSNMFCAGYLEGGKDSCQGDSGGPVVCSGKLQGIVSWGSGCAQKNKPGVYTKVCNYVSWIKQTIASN
Description: as §2

`N=C(N)N[C@@H]1CCCCNC(=O)[C@H](CCCCN)NC(=O)[C@H](CCCCN)NC(=O)Cc2cccc(c2)CNC(=O)CNC1=O` [Inhibitor 10, 1‐((8R,15S,18S)‐15,18‐bis(4‐aminobutyl)‐4,7,14,17,20‐pentaoxo‐3,6,13,16,19‐pentaaza‐1(1,3)‐benzenacyclohenicosaphane‐8‐yl)guanidine] showed a Ki [1] of 0.142 ± 0.01 µM, a Ki [2] of 0.138 ± 0.031 µM and a Ki [3] of 1.57 ± 0.32 nM. The “binding mode from Dixon plot of bZiPro inhibition” value ([3]; substrate 10, 5 and 2.5 μM, bZiPro 1.96 nM in assay) was “competitive reversible”, the inhibition of furin (furin) was “could not detect any inhibition” and the inhibition of trypsin (trypsin) was “could not detect any inhibition”.
Compound `N=C(N)N[C@@H]1CCCCNC(=O)[C@H](CCCCN)NC(=O)[C@H](CCCCN)NC(=O)Cc2cccc(c2)NC(=O)CNC1=O` [Inhibitor 11] has a Ki [1] of 60.6 ± 5.3 µM, a Ki [2] of 47.6 ± 2.5 µM and a Ki [3] of 1420 ± 270 nM. The inhibition of furin (furin) was “could not detect any inhibition” and the inhibition of trypsin (trypsin) was “could not detect any inhibition”.
With `NCCCC[C@@H]1NC(=O)Cc2cccc(c2)CNC(=O)CNC(=O)[C@H](NC(N)=O)CCCCNC(=O)[C@H](CCCCN)NC1=O` [Inhibitor 21] the Ki [1] was 135 µM, the Ki [2] was 68 µM and the Ki [3] was 12000 nM.
